Results from US8124788B2, “Spirocyclic cyclohexane compounds with analgesic activity” (Gruenenthal GmbH, priority 2006, dated 2012).

What follows are compounds tested against T1, human μ opiate receptor (Homo sapiens, UniProt P35372) (assay: Affinity for the human μ opiate receptor ([3H]-naloxone displacement, CHO-K1 membrane preparation, SPA)). Details: compounds prepared via automated synthesis; single measurements at a test concentration of 1 μM.
T1 construct: purchased PerkinElmer Life Sciences, Zaventem, Belgium RB-HOM; host or cells: CHO-K1 cells (recombinant expression)
T1 sequence (P35372 whole entry): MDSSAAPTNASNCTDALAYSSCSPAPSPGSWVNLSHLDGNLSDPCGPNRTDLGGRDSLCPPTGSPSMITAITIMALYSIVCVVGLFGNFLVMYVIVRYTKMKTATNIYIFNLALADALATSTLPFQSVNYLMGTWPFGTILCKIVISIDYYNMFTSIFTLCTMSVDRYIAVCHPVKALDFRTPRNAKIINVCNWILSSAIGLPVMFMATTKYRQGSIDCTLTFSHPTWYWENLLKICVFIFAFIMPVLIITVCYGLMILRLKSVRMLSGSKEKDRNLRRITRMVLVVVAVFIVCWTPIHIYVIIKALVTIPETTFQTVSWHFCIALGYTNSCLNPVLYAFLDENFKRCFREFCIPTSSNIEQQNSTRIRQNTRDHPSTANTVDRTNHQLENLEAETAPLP
Type: binding
Experimental: The receptor affinity for the human μ opiate receptor is determined in a homogeneous set-up in microtitre plates. For this purpose, dilution series of the substances to be tested are incubated with a receptor membrane preparation (15-40 μg of protein/250 μl of incubation batch) of CHO-K1 cells which express the human μ opiate receptor (RB-HOM receptor membrane preparation from PerkinElmer Life Sciences, Zaventem, Belgium) in the presence of 1 nmol/l of the radioactive ligand [^3H]-naloxone (NET719, PerkinElmer Life Sciences, Zaventem, Belgium) and 1 mg of WGA-SPA-Beads (wheat germ agglutinin SPA beads from Amersham/Pharmacia, Freiburg, Germany) in a total volume of 250 μl for 90 minutes at room temperature. 50 mmol/l of Tris-HCl supplemented with 0.06% of bovine serum albumin are used as the incubation buffer. 100 μmol/l of naloxone are additionally added for determination of the non-specific binding. After the end of the ninety-minute incubation time, the microtitre plates are centrifuged for 20 minutes at 1,000 g and the radioactivity is measured in a β-counter (Microbeta-Trilum, PerkinElmer Wallac, Freiburg, Germany). The percentage displacement of the radioactive ligand from its binding to the human μ opiate receptor is determined at a concentration of the test substances of 1 μmol/l and stated as the percentage inhibition of the specific binding. Starting from the percentage displacement by various concentrations of the test substances, IC50 inhibitory concentrations which cause a 50 percent displacement of the radioactive ligand are calculated. By conversion by means of the Cheng-Prusoff relationship, Ki values for the test substances are obtained.

Row | SMILES | μ opioid receptor [1 μmol], % inhibition [%]
1 | CC(=O)N1CCc2c([nH]c3ccccc23)C12CCC(C(c1ccccc1)N(C)C)CC2 (stereo not drawn) [Compound 79, 2-acetyl-{1,1-[3-(dimethylamino-phenylmethyl) -pentamethylene]-3,4-dihydro-1H-2,9-diazafluorene}] | 4
2 | CN(C)C(c1ccccc1)C1CCC2(CC1)c1[nH]c3ccccc3c1CCN2C(=O)C=Cc1ccccc1 (stereo not drawn) [Compound 80, 1-{1,1-[3-(dimethylamino-phenylmethyl)-pentamethylene]-3,4-dihydro-1H-2,9-diazafluoren-2-yl}-3-phenylprop-2-en-1-one] | 41
3 | COCC(=O)N1CCc2c([nH]c3ccccc23)C12CCC(C(c1ccccc1)N(C)C)CC2 (stereo not drawn) [Compound 81, 2-(methoxyacetyl)-{1,1-[3-(dimethylamino-phenylmethyl) -pentamethylene]-3,4-dihydro-1H-2,9-diazafluorene}] | 0
4 | CN(C)C(c1ccccc1)C1CCC2(CC1)c1[nH]c3ccccc3c1CCN2C(=O)Cc1cccs1 (stereo not drawn) [Compound 82, 2-(2-thienylacetyl)-{1,1-[3-(dimethylamino-phenylmethyl)-pentamethylene]-3,4-dihydro-1H-2,9-diazafluorene}] | 31
5 | CN(C)C(c1ccccc1)C1CCC2(CC1)c1[nH]c3ccccc3c1CCN2C(=O)COCc1ccccc1 (stereo not drawn) [Compound 83, 2-(benzyloxyacetyl)-{1,1-[3-(dimethylamino-phenylmethyl) -pentamethylene]-3,4-dihydro-1H-2,9-diazafluorene}] | 50
6 | CC(=O)N1CCc2c([nH]c3ccccc23)C12CCC(C(c1ccc(F)cc1)N(C)C)CC2 (stereo not drawn) [Compound 84, acetyl-{1,1-[3-(dimethylamino-(4-fluorophenyl)methyl) -pentamethylene]-3,4-dihydro-1H-2,9-diazafluorene}] | 41
7 | CN(C)C(c1ccc(F)cc1)C1CCC2(CC1)c1[nH]c3ccccc3c1CCN2C(=O)CCC1CCCC1 (stereo not drawn) [Compound 85, 2-(3-cyclopentylpropanoyl)-{1,1-[3-(dimethylamino-(4-fluorophenyl)methyl)-pentamethylene]-3,4-dihydro-1H-2,9-diazafluorene}] | 50
8 | CN(C)C(c1ccc(F)cc1)C1CCC2(CC1)c1[nH]c3ccccc3c1CCN2C(=O)C=Cc1ccccc1 (stereo not drawn) [Compound 86, 1-{1,1-[3-(dimethylamino-(4-fluorophenyl)methyl) -pentamethylene]-3,4-dihydro-1H-2,9-diazafluoren-2-yl}-3-phenylprop-2-en-1-one] | 12
9 | CN(C)C(c1ccc(F)cc1)C1CCC2(CC1)c1[nH]c3ccccc3c1CCN2C(=O)COCc1ccccc1 (stereo not drawn) [Compound 88, 2-(benzyloxyacetyl)-{1,1-[3-(dimethylamino-(4-fluorophenyl)methyl)-pentamethylene]-3,4-dihydro-1H-2,9-diazafluorene}] | 11
10 | CC(=O)N1CCc2c([nH]c3ccccc23)C12CCC(C(c1cccc(F)c1)N(C)C)CC2 (stereo not drawn) [Compound 89, acetyl-{1,1-[3-(dimethylamino-(3-fluorophenyl)methyl) -pentamethylene]-3,4-dihydro-1H-2,9-diazafluorene}] | 10
11 | CN(C)C(c1cccc(F)c1)C1CCC2(CC1)c1[nH]c3ccccc3c1CCN2C(=O)C1CC1 (stereo not drawn) [Compound 91, 2-(cyclopropylcarbonyl)-{1,1-[3-(dimethylamino-(3-fluorophenyl)methyl)-pentamethylene]-3,4-dihydro-1H-2,9-diazafluorene}] | 25
12 | COCC(=O)N1CCc2c([nH]c3ccccc23)C12CCC(C(c1cccc(F)c1)N(C)C)CC2 (stereo not drawn) [Compound 92, 2-(methoxyacetyl)-{1,1-[3-(dimethylamino-(3-fluorophenyl)methyl)-pentamethylene]-3,4-dihydro-1H-2,9-diazafluorene}] | 22
13 | CN(C)C(c1cccc(F)c1)C1CCC2(CC1)c1[nH]c3ccccc3c1CCN2C(=O)Cc1cccs1 (stereo not drawn) [Compound 93, 2-(2-thienylacetyl)-{1,1-[3-(dimethylamino-(3-fluorophenyl)methyl)-pentamethylene]-3,4-dihydro-1H-2,9-diazafluorene}] | 19
14 | CN(C)C(c1cccc(F)c1)C1CCC2(CC1)c1[nH]c3ccccc3c1CCN2C(=O)COCc1ccccc1 (stereo not drawn) [Compound 94, 2-(benzyloxyacetyl)-{1,1-[3-(dimethylamino-(3-fluorophenyl)methyl)-pentamethylene]-3,4-dihydro-1H-2,9-diazafluorene}] | 32
15 | CN(C)C(c1ccc(Cl)cc1)C1CCC2(CC1)c1[nH]c3ccccc3c1CCN2C(=O)CCC1CCCC1 (stereo not drawn) [Compound 95, 2-(3-cyclopentylpropanoyl)-{1,1-[3-(dimethylamino-(4-chlorophenyl)-methyl)-pentamethylene]-3,4-dihydro-1H-2,9-diazafluorene}] | 18
16 | CN(C)C(c1ccc(Cl)cc1)C1CCC2(CC1)c1[nH]c3ccccc3c1CCN2C(=O)C1CC1 (stereo not drawn) [Compound 96, 2-(cyclopropylcarbonyl)-{1,1-[3-(dimethylamino-(4-chlorophenyl)methyl)-pentamethylene]-3,4-dihydro-1H-2,9-diazafluorene}] | 18
17 | COCC(=O)N1CCc2c([nH]c3ccccc23)C12CCC(C(c1ccc(Cl)cc1)N(C)C)CC2 (stereo not drawn) [Compound 97, 2-(methoxyacetyl)-{1,1-[3-(dimethylamino-(4-chlorophenyl)methyl)-pentamethylene]-3,4-dihydro-1H-2,9-diazafluorene}] | 20
18 | CN(C)C(c1ccc(Cl)cc1)C1CCC2(CC1)c1[nH]c3ccccc3c1CCN2C(=O)Cc1cccs1 (stereo not drawn) [Compound 98, 2-(2-thienylacetyl)-{1,1-[3-(dimethylamino-(4-chlorophenyl)methyl)-pentamethylene]-3,4-dihydro-1H-2,9-diazafluorene}] | 21
19 | CN(C)C(c1ccc(Cl)cc1)C1CCC2(CC1)c1[nH]c3ccccc3c1CCN2C(=O)COCc1ccccc1 (stereo not drawn) [Compound 99, 2-(benzyloxyacetyl)-{1,1-[3-(dimethylamino-(4-chlorophenyl)methyl)-pentamethylene]-3,4-dihydro-1H-2,9-diazafluorene}] | 35
20 | CCCCC(CC)C(=O)N1CCc2c([nH]c3ccccc23)C12CCC(C(c1ccccc1)N(C)C)CC2 (stereo not drawn) [Compound 100, 2-(2-ethylhexanoyl)-{1,1-[3-(dimethylamino-phenylmethyl)-pentamethylene]-3,4-dihydro-1H-2,9-diazafluorene}] | 65
21 | CC(C)C(=O)N1CCc2c([nH]c3ccccc23)C12CCC(C(c1ccccc1)N(C)C)CC2 (stereo not drawn) [Compound 101, 2-isobutyryl-{1,1-[3-(dimethylamino-phenylmethyl) -pentamethylene]-3,4-dihydro-1H-2,9-diazafluorene}] | 74
22 | CCC(=O)N1CCc2c([nH]c3ccccc23)C12CCC(C(c1ccccc1)N(C)C)CC2 (stereo not drawn) [Compound 102, 2-propionyl-{1,1-[3-(dimethylamino-phenylmethyl) -pentamethylene]-3,4-dihydro-1H-2,9-diazafluorene}] | 55
23 | CN(C)C(c1ccccc1)C1CCC2(CC1)c1[nH]c3ccccc3c1CCN2C(=O)c1csc2ccccc12 (stereo not drawn) [Compound 103, 2-(1-benzothien-3-ylcarbonyl)-{1,1-[3-(dimethylamino-phenylmethyl)-pentamethylene]-3,4-dihydro-1H-2,9-diazafluorene}] | 13
24 | CN(C)C(c1ccccc1)C1CCC2(CC1)c1[nH]c3ccccc3c1CCN2C(=O)Cc1ccc(F)cc1 (stereo not drawn) [Compound 104, 2-[(4-fluorophenyl)acetyl]-{1,1-[3-(dimethylamino-phenylmethyl)-pentamethylene]-3,4-dihydro-1H-2,9-diazafluorene}] | 39
25 | CN(C)C(c1ccc(F)cc1)C1CCC2(CC1)c1[nH]c3ccccc3c1CCN2C(=O)C1CCCC1 (stereo not drawn) [Compound 109, 2-cyclopentylcarbonyl-{1,1-[3-(dimethylamino-(4-fluorophenyl)methyl)-pentamethylene]-3,4-dihydro-1H-2,9-diazafluorene}] | 21
26 | CN(C)C(c1ccc(F)cc1)C1CCC2(CC1)c1[nH]c3ccccc3c1CCN2C(=O)Cc1ccc(F)cc1 (stereo not drawn) [Compound 110, 2-[(4-fluorophenyl)acetyl]-{1,1-[3-(dimethylamino-(4-fluorophenyl)methyl)-pentamethylene]-3,4-dihydro-1H-2,9-diazafluorene}] | 14
27 | CCCCC(CC)C(=O)N1CCc2c([nH]c3ccccc23)C12CCC(C(c1cccc(F)c1)N(C)C)CC2 (stereo not drawn) [Compound 111, 2-(2-ethylhexanoyl)-{1,1-[3-(dimethylamino-(3-fluorophenyl)methyl)-pentamethylene]-3,4-dihydro-1H-2,9-diazafluorene}] | 13
